Several values for one entry are separate records, joined by “and”; a condition that tells them apart may be missing. Equal entries are not always repeated. Toxic doses and inconclusive results are not listed.

This assay deals with P388 leukemia ip, CD2F1 mice, survival T/C. The assay is described as follows: NCI In Vivo Anticancer Drug Screen. Data for tumor model P388 Leukemia (intraperitoneal) in CD2F1 (CDF1) mice. Particulars: endpoint: median survival time, higher = longer survival. The procedure, abridged: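 Mice carrying the transplanted tumor received test compound or vehicle. Survival was recorded in each group, and the value is the treated-group measurement divided by that of the vehicle-treated control group.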

The mark [1] stands for this setting: dose: 50.0 mg/kg/injection, schedule: Q01DX005 (ip), vehicle: Klucel (hydroxypropylcellulose) (HPC).
The mark [2] stands for this setting: dose: 50.0 mg/kg/injection, schedule: Q01DX005 (ip), vehicle: saline with Tween-80.
The mark [3] stands for this setting: dose: 100.0 mg/kg/injection, schedule: Q01DX005 (ip), vehicle: saline with Tween-80.
Where [4] appears, read: dose: 200.0 mg/kg/injection, schedule: Q01DX005 (ip), vehicle: saline with Tween-80.
[5] abbreviates: dose: 60.0 mg/kg/injection, schedule: Q01DX005 (ip), vehicle: saline.
Setting [6] is: dose: 120.0 mg/kg/injection, schedule: Q01DX005 (ip), vehicle: saline.
Setting [7] is: dose: 240.0 mg/kg/injection, schedule: Q01DX005 (ip), vehicle: saline.
The mark [8] stands for this setting: dose: 12.5 mg/kg/injection, schedule: Q01DX009 (ip), vehicle: saline.
Setting [9] is: dose: 25.0 mg/kg/injection, schedule: Q01DX009 (ip), vehicle: saline.
[10] abbreviates: dose: 50.0 mg/kg/injection, schedule: Q01DX009 (ip), vehicle: saline.
Where [11] appears, read: dose: 200.0 mg/kg/injection, schedule: Q01DX009 (ip), vehicle: saline.
[12] abbreviates: dose: 60.0 mg/kg/injection, schedule: Q01DX005 (ip), vehicle: saline with Tween-80.
The mark [13] stands for this setting: dose: 120.0 mg/kg/injection, schedule: Q01DX005 (ip), vehicle: saline with Tween-80.
[14] abbreviates: dose: 240.0 mg/kg/injection, schedule: Q01DX005 (ip), vehicle: saline with Tween-80.

Regarding `CNc1cn(C2OC(CO)C(O)C2O)c(=O)[nH]c1=O` (stereo not given), the T/C was 122 % of control (dose: 50.0 mg/kg/injection, schedule: Q01DX005 (ip), vehicle: saline); 110 % of control (dose: 100.0 mg/kg/injection, schedule: Q01DX005 (ip), vehicle: saline); 105 % of control (dose: 200.0 mg/kg/injection, schedule: Q01DX005 (ip), vehicle: saline).

On to `Cn1c(=O)c2c(=O)n3ccccc3nc2n(C)c1=O`, for which the T/C is 104 % of control under setting [1] and 96 % of control (dose: 100.0 mg/kg/injection, schedule: Q01DX005 (ip), vehicle: Klucel (hydroxypropylcellulose) (HPC)).

In the case of `CCCCCCCCCCCCCCCCCC[N+]1(CC)CCCCC1`, the T/C reads like this: (dose: 0.04 mg/kg/injection, schedule: Q01DX009 (ip), vehicle: saline) 95 % of control; (dose: 0.09 mg/kg/injection, schedule: Q01DX009 (ip), vehicle: saline) 92 % of control; (dose: 0.19 mg/kg/injection, schedule: Q01DX009 (ip), vehicle: saline) 103 % of control and 118 % of control; (dose: 0.39 mg/kg/injection, schedule: Q01DX009 (ip), vehicle: saline) 113 % of control and 120 % of control; (dose: 0.78 mg/kg/injection, schedule: Q01DX009 (ip), vehicle: saline) 99 % of control.

Take `CCC(c1ccccc1)c1cc(C(C)(C)C)cc(C(C)(C)C)c1O` (stereo not given): the T/C (dose: 50.0 mg/kg/injection, schedule: Q01DX005 (ip), vehicle: distilled water + alcohol) is 100 % of control; the T/C (dose: 100.0 mg/kg/injection, schedule: Q01DX005 (ip), vehicle: distilled water + alcohol) is 107 % of control; the T/C (dose: 200.0 mg/kg/injection, schedule: Q01DX005 (ip), vehicle: distilled water + alcohol) is 100 % of control.

With `COC(=O)c1cc(=O)c2scc(C)[n+]2[nH]1`, the T/C is, setting by setting: under setting [2], 105 % of control; under setting [3], 100 % of control; under setting [4], 100 % of control.

On to `C[N+](C)(C)N=P(O)(N[N+](C)(C)C)Oc1ccccc1` (stereo not given), for which the T/C under setting [5] is 95 % of control, the T/C under setting [6] is 100 % of control and the T/C under setting [7] was 95 % of control.

`CC(C)(C(=O)O)n1c(-c2ccccc2)c(-c2ccccc2)oc1=O`: the T/C (dose: 8.75 mg/kg/injection, schedule: Q01DX005 (ip), vehicle: Klucel (hydroxypropylcellulose) (HPC)) was 106 % of control; the T/C (dose: 17.5 mg/kg/injection, schedule: Q01DX005 (ip), vehicle: Klucel (hydroxypropylcellulose) (HPC)) was 106 % of control; the T/C (dose: 35.0 mg/kg/injection, schedule: Q01DX005 (ip), vehicle: Klucel (hydroxypropylcellulose) (HPC)) is 106 % of control.

In the case of `N#CC(=O)Nc1cc(Cl)cc(Cl)c1`, the T/C (dose: 7.5 mg/kg/injection, schedule: Q01DX005 (ip), vehicle: saline with Tween-80) is 100 % of control and the T/C (dose: 15.0 mg/kg/injection, schedule: Q01DX005 (ip), vehicle: saline with Tween-80) was 102 % of control.

For the compound `CCN(CC)c1cc(=O)nc2ccccn12`, the T/C was 100 % of control under setting [5], 99 % of control under setting [6] and 106 % of control under setting [7].

`Cc1sc([S-])n[n+]1-c1ccccc1`: the T/C is 93 % of control (dose: 6.25 mg/kg/injection, schedule: Q01DX009 (ip), vehicle: distilled water + Tween-80); 90 % of control (dose: 12.5 mg/kg/injection, schedule: Q01DX009 (ip), vehicle: distilled water + Tween-80); 96 % of control (dose: 25.0 mg/kg/injection, schedule: Q01DX009 (ip), vehicle: distilled water + Tween-80); 97 % of control (dose: 50.0 mg/kg/injection, schedule: Q01DX009 (ip), vehicle: distilled water + Tween-80); 110 % of control (dose: 100.0 mg/kg/injection, schedule: Q01DX009 (ip), vehicle: distilled water + Tween-80); 105 % of control (dose: 200.0 mg/kg/injection, schedule: Q01DX009 (ip), vehicle: distilled water + Tween-80).

`CN(CCN(C)C(=O)CCOS(C)(=O)=O)C(=O)CCOS(C)(=O)=O`: the T/C is 151 % of control under setting [8]; 175 % of control under setting [9]; 192 % of control and 210 % of control under setting [10]; 260 % of control and 290 % of control (dose: 100.0 mg/kg/injection, schedule: Q01DX009 (ip), vehicle: saline); 116 % of control and 297 % of control under setting [11].

Take `CC(=O)/C(=C\c1ccc(O)cc1)C(=O)CCN(C)C`: the T/C by setting is: under setting [2], 108 % of control; under setting [3], 112 % of control; under setting [4], 112 % of control.

As to `COCCCn1nnc2ccccc2c1=O`, the T/C was 105 % of control (dose: 25.0 mg/kg/injection, schedule: Q01DX009 (ip), vehicle: other); 100 % of control (dose: 50.0 mg/kg/injection, schedule: Q01DX009 (ip), vehicle: other); 104 % of control (dose: 100.0 mg/kg/injection, schedule: Q01DX009 (ip), vehicle: other); 106 % of control (dose: 200.0 mg/kg/injection, schedule: Q01DX009 (ip), vehicle: other).

As to `COc1nc(NC2OC(CO)C(O)C(O)C2O)c(Cl)c(=O)n1C` (stereo not given), the T/C under setting [12] is 94 % of control, the T/C under setting [13] was 93 % of control and the T/C under setting [14] was 97 % of control.

As for `O=C(Nc1ccc(O)c(C(=O)O)c1)Oc1ccc([N+](=O)[O-])cc1`, the T/C is, setting by setting: under setting [12], 102 % of control; under setting [13], 107 % of control; under setting [14], 94 % of control.

With `CC1CCC2(C)OC1OC2=O` (stereo not given), the T/C under setting [2] is 97 % of control, the T/C under setting [3] was 91 % of control and the T/C under setting [4] is 87 % of control.

For the compound `CC12Oc3ccc(Cl)cc3C1(C)c1cc(Cl)ccc1O2` (stereo not given), the T/C is, setting by setting: (dose: 50.0 mg/kg/injection, schedule: Q01DX009 (ip), vehicle: acetone) 104 % of control; (dose: 100.0 mg/kg/injection, schedule: Q01DX009 (ip), vehicle: acetone) 102 % of control; (dose: 200.0 mg/kg/injection, schedule: Q01DX009 (ip), vehicle: acetone) 102 % of control.

`c1ccc2c(SCCCCCCCCCCCSc3c4ccccc4nc4ccccc34)c3ccccc3nc2c1`: the T/C is 106 % of control (dose: 60.0 mg/kg/injection, schedule: Q01DX005 (ip), vehicle: Klucel (hydroxypropylcellulose) (HPC)); 101 % of control (dose: 120.0 mg/kg/injection, schedule: Q01DX005 (ip), vehicle: Klucel (hydroxypropylcellulose) (HPC)); 90 % of control (dose: 240.0 mg/kg/injection, schedule: Q01DX005 (ip), vehicle: Klucel (hydroxypropylcellulose) (HPC)).

`CC(=O)/C=C(\C)Nc1ccccc1`: the T/C is 106 % of control under setting [8]; 102 % of control under setting [9]; 91 % of control and 97 % of control under setting [10]; 97 % of control under setting [11].

Turning to `N#Cc1ccoc1`, the T/C is 93 % of control (dose: 12.5 mg/kg/injection, schedule: Q01DX005 (ip), vehicle: Klucel (hydroxypropylcellulose) (HPC)); 102 % of control (dose: 25.0 mg/kg/injection, schedule: Q01DX005 (ip), vehicle: Klucel (hydroxypropylcellulose) (HPC)); 104 % of control under setting [1].

In the case of `C/C=C/Cc1n[nH]c(=O)c2c(C)[nH]nc12`, the T/C is, setting by setting: (dose: 25.0 mg/kg/injection, schedule: Q04DX002 (ip), vehicle: Klucel (hydroxypropylcellulose) (HPC)) 105 % of control; (dose: 50.0 mg/kg/injection, schedule: Q04DX002 (ip), vehicle: Klucel (hydroxypropylcellulose) (HPC)) 103 % of control; (dose: 100.0 mg/kg/injection, schedule: Q04DX002 (ip), vehicle: Klucel (hydroxypropylcellulose) (HPC)) 104 % of control and 90 % of control.
